Data published in patent US20030206891A1, “Rapamycin-based biological regulation” (ARIAD Gene Therapeutics, Inc., priority 1995, published 2003).

Legend:
[1] = molecular target: T1, FKBP (Homo sapiens, UniProt P62942); experiment: Competitive fluorescence polarization (FP) assay of binding to FKBP with fluoresceinated FK506 probe AP1491
T1 construct: made in house
Procedure: Serial 10-fold dilutions of each analog were prepared in 100% ethanol in glass vials and stored on ice. All other manipulations were performed at room temperature.
The plates was stored covered in the dark for approximately 30 min to permit equilibration and then the fluorescence polarization of the sample in each well read on a Jolley FPM-2 FP plate reader (Jolley Consulting and Research, Inc., Grayslake, Ill.) in accordance with the manufacturer's recommendations. The mean polarization (mP units) for each competitor concentration was usually converted to % total binding by reference to the control values and plotted (y) vs. log molar final concentration of competitor (x). Non-linear least square analysis was used to fit the curve and extract the IC50 using the following equation:
y=M1+(M4−M1)/(1+exp(M2*(M3−x)))
where M3 is the IC50. For incomplete curves the IC50 was determined by interpolation.
The affinity of the rapalogs for FKBP was assayed as described for C24 rapalogs in section A above, using competitive FP.

[2] = test system: HT1080 cells expressing myristoylated FRAP-FKBP-Fas or (FKBPx2)-Fas chimeras; experiment: Regulated apoptosis of stably transfected HT1080 cells, alamar blue viability; format: cell-based, human
Procedure: HT1080 cells were infected with viral stock and selected with G418.
The media was removed and replaced with 100 μl of media containing 10% alamar blue dye. Plates were incubated as before, and the extent of cell viability assessed periodically by spectrophotometric determination of OD at 570 nm and 600 nm on a microtiter plate reader.

[3] = molecular target: T2, FRAP (Homo sapiens, UniProt P42345+P62942); experiment: SEAP reporter assay in HT20-6 cells for binding of rapalog-FKBP complexes to FRAP; format: cell-based; details: serial dilutions, 22 hours, FIG. 15
T2 construct: expressed in transfected cells; host or cells: HT20-6 (clone of human HT1080 fibrosarcoma cells)
Procedure: HT20-6 cells were plated in 96-well dishes (1×10^4 cells/well) and 200 _l medium containing serial dilutions of rapalog was added to each well (in triplicate).

[4] = molecular target: FRAP (amino acids 2015-2114) displayed on phage with His6-tagged FKBP (Homo sapiens, UniProt P42345+P62942); experiment: Binding enrichment of FRAP display phagemids on His6-flag-FKBP with compound, captured on Ni-NTA agarose; details: 1 μM His6-flag-FKBP, 2.5 μl of 100 pM compound in 250 μl, 1 hour
[5] = test system: transfected HT1080 cells; experiment: Rapamycin-dependent production of hGH in nu/nu mice transplanted with transfected HT1080 cells; format: in vivo
Excerpt: To transplant transiently transfected cells into mice, 2×10^6 transfected HT1080 cells, were suspended in 100 _l PBS/0.1% BSA/0.1% glucose buffer, and administered into four intramuscular sites (approximately 25 _l per site) on the haunches and flanks of the animals. Control mice received equivalent volume injections of buffer alone.
(§1) The accuracy of the dosing solutions was confirmed by HPLC analysis prior to intravenous administration into the tail veins. […] In addition, other control mice, bearing transfected cells, received only the rapamycin vehicle.
Blood was collected by either anesthetizing or sacrificing mice via CO2 inhalation. Anesthetized mice were used to collect 100 _l of blood by cardiac puncture. The mice were revived and allowed to recover for subsequent blood collections. Sacrificed mice were immediately exsanguinated. Blood samples were allowed to clot for 24 hours, at 4° C., and sera were collected following centrifugation at 1000×g for 15 minutes. Serum hGH was measured by the Boehringer Mannheim non-isotopic sandwich ELISA (Cat No.1 585 878). […] Recommended assay instructions were followed.
Mice were administered transfected HT1080 cells as described above. […] The four remaining doses were given under anesthesia, immediately subsequent to blood collection, at 16, 32, 48, and 64 hours. […]

[6] = molecular target: Lex-FKBP and Lex-FRAP proteins (Homo sapiens, UniProt P42345+P62942); experiment: Gel mobility shift assay of rapamycin-dependent DNA binding by Lex-FKBP/Lex-FRAP; format: biochemical; details: increasing amounts of rapamycin, FIG. 14 lanes 2-4
[7] = Pharmacokinetics in nu/nu mice after intravenous administration; format: in vivo
Excerpt: as §1

[8] = rapamycin C24 oximes, competitive FP vs AP1491 probe, recombinant FKBP
[9] = C7 rapalog experiment, competitive FP

T1 sequence (P62942 whole entry): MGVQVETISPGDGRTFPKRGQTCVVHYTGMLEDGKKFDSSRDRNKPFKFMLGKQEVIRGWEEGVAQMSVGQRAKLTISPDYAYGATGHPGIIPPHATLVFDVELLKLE
T2 sequence (P42345 2025-2113): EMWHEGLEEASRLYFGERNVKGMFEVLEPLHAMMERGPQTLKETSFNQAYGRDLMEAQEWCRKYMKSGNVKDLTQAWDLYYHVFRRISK
T2 sequence (P62942 2-108): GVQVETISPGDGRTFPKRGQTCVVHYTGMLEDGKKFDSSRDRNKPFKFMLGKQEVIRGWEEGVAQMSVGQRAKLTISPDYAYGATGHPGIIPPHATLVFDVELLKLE
Sequence of FRAP (amino acids 2015-2114) displayed on phage with His6-tagged FKBP (P42345 2015-2114): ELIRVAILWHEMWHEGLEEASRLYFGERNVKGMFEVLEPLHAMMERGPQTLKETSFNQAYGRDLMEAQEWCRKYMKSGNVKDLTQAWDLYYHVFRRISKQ
Sequence of FRAP (amino acids 2015-2114) displayed on phage with His6-tagged FKBP (P62942 with tags, fused parts or gaps): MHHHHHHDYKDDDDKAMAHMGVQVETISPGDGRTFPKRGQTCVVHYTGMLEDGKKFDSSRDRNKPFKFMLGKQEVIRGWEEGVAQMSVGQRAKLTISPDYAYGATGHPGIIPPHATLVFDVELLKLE
Sequence of Lex-FKBP and Lex-FRAP proteins (P62942 2-108): as the sequence (P62942 2-108) above
Sequence of Lex-FKBP and Lex-FRAP proteins (P42345 2025-2113): as the sequence (P42345 2025-2113) above

For `COC1CC2CCC(C)C(O)(O2)C(=O)C(=O)N2CCCCC2C(=O)OC(C(C)CC2CCC(O)C(OC)C2)CC(=NOCC(N)=O)C(C)C=C(C)C(O)C(OC)C(=O)C(C)CC(C)C=CC=CC=C1C` (single isomer, unassigned) [AP1729, Rapamycin (E and Z)-24-(O-carboxamidomethyloxime)], the “fold loss in affinity (=IC50/IC50 of rapamycin)” value (from here on “fold loss in affinity”) ([1]; C24 oxime experiment) was 304 and the IC50 [1, 8] was 2400 nM.
With `COC1CC2CCC(C)C(O)(O2)C(=O)C(=O)N2CCCCC2C(=O)OC(C(C)CC2CCC(O)C(OC)C2)CC(=NOCC(N)=O)C(C)C=C(C)C(O)C(OC)C(=O)C(C)CC(C)C=CC=CC=C1C` (single isomer, unassigned) [AP1730, Rapamycin (E and Z)-24-(O-carboxamidomethyloxime)] the “fold loss in affinity” value ([1]; C24 oxime experiment) was 40.5 and the IC50 [1, 8] was 320 nM.
With `CCC(C)(C)C(=O)C(=O)N1CCCCC1C(=O)O[C@H](CCc1ccc(OC)c(OC)c1)c1cccc(OCC(=O)NCCOCCNC(=O)COc2cccc([C@@H](CCc3ccc(OC)c(OC)c3)OC(=O)C3CCCCN3C(=O)C(=O)C(C)(C)CC)c2)c1` (stereo partly drawn) [AP1428] the “extent of cell death of cells expressing a myristoylated (FKBPx2)-Fas construct, relative to rapamycin on M30/M31 cells” value ([2]; FIG. 13(c)) was “comparable”.
In the case of `COC1CC2CCC(C)C(O)(O2)C(=O)C(=O)N2CCCCC2C(=O)OC(C(C)CC2CCC(O)C(OC)C2)CC(=NOCC(=O)O)C(C)C=C(C)C(O)C(OC)C(=O)C(C)CC(C)C=CC=CC=C1C` (stereo not drawn) [AP1686, Rapamycin (E and Z)-24-(O-carboxymethyloxime)], the “fold loss in affinity” value ([1]; C24 oxime experiment) is reported as 1620 and the IC50 [1, 8] is reported as 16200 nM.
For `COC1CC2CCC(C)C(O)(O2)C(=O)C(=O)N2CCCCC2C(=O)OC(C(C)CC2CCC(O)C(OC)C2)CC(=NOCC(=O)O)C(C)C=C(C)C(O)C(OC)C(=O)C(C)CC(C)C=CC=CC=C1C` (stereo not drawn) [AP1687, Rapamycin (E and Z)-24-(O-carboxymethyloxime)], the “fold loss in affinity” value ([1]; C24 oxime experiment) was 813.
In the case of `CO[C@@H]1CC(C[C@@H](C)C2CC(=O)[C@H](C)/C=C(\C)[C@@H](O)[C@@H](OC)C(=O)[C@H](C)C[C@H](C)/C=C/C=C/C=C(\C)[C@@H](OC(C)C)C[C@@H]3CC[C@@H](C)[C@@](O)(O3)C(=O)C(=O)N3CCCC[C@H]3C(=O)O2)CC[C@H]1O` (stereo partly drawn) [AP1700, 7S-isopropoxyrapamycin], the “fold loss in affinity” value ([1]; C7 rapalog experiment) is reported as 2.5, the IC50 [1, 9] is reported as 17.8 nM and the “FRAP affinity as indicated by SEAP production” value [3] is reported as “modest reduction in FRAP affinity”.
In the case of `COC1CC(CC(C)C2CC(=O)C(C)C=C(C)C(O)C(OC)C(=O)C(C)CC(C)C=CC=CC=C(C)C(c3c[nH]c4ccccc34)CC3CCC(C)C(O)(O3)C(=O)C(=O)N3CCCCC3C(=O)O2)CCC1O` (stereo not drawn) [AP1702, 7S-(3-indolyl)rapamycin], the “fold loss in affinity” value ([1]; C7 rapalog experiment) is reported as 3.0, the IC50 [1, 9] is reported as 24.5 nM and the “FRAP affinity as indicated by SEAP production” value [3] is reported as “almost completely abolish SEAP expression”.
With `C=CC[C@@H]1/C=C(\C)C[C@H](C)C[C@H](OC)[C@H]2O[C@@](O)(C(=O)C(=O)N3CCCC[C@H]3C(=O)O[C@H](/C(C)=C/[C@@H]3CC[C@@H](O)[C@H](OC)C3)[C@H](C)[C@@H](O)CC1=O)[C@H](C)C[C@@H]2OC` [FK506] the “enrichment of FRAP phage compared to the starting mixture” value [4] was 2.4 fold.
For `CO[C@H]1C[C@@H]2CC[C@@H](C)[C@@](O)(O2)C(=O)C(=O)N2CCCC[C@H]2C(=O)O[C@H]([C@H](C)C[C@@H]2CC[C@@H](O)[C@H](OC)C2)CC(=O)[C@H](C)/C=C(\C)[C@@H](O)[C@@H](OC)C(=O)[C@H](C)C[C@H](C)/C=C/C=C/C=C/1C` [rapamycin, Rapamycin], the “serum hGH production vs dose” value ([5]; 0.01-10.0 mg/kg i.v., 17 hours after administration, FIG. 6) was “dose-responsive production of hGH”, the “time of peak serum hGH after treatment” value ([5]; single 10.0 mg/kg i.v. dose, FIG. 7) was “peaked at eight hours” and the “enrichment of FRAP phage compared to the starting mixture” value [4] was 271 fold. The “effect on survival of cells not expressing mixed chimeric proteins” value ([2]; FIG. 13(c)) was “minimal effects”, the “survival of cells stably transfected with M30 and M31-expressing constructs” value ([2]; with 50 ng/ml actinomycin D, about 20 hours, FIG. 13(a),(b)) was “potently reduced” and the “formation of specific protein-DNA complex” value [6] was “concomitant appearance of a specific complex”.
For “C14-desoxo-rapamycin [reference compound]”, the “fold loss in affinity” value ([1]; C7 rapalog experiment) was 20.8 and the “fold loss in affinity” value ([1]; C24 oxime experiment) was 18.6.
In the case of “hGH: human growth hormone secreted by the engineered cells (reporter gene product)”, the “half-life of clearance from the circulation” value [7] is reported as “less than four minutes”.
